Data from patent US20240270821A1, “GIP/GLP1/GCG TRI-RECEPTOR AGONISTS AND USES THEREOF” (priority 2023, published 2024).
Like-named read-outs stand apart in the source and are kept apart here. Starred links: 1 amine or outer side, 2 acyl side, 3 side chain; linkers in the order of their positions; H or OH if unused. Non-standard residues stand in square brackets, D forms with d. Residues, ends and D or L forms follow the SMILES beside them. Groups on a side chain read outwards from the residue. No end group written: not given here. *: point of attachment. C20 diacid = O=C(O)CCCCCCCCCCCCCCCCCCC(=O)*; C18 diacid = O=C(O)CCCCCCCCCCCCCCCCC(=O)*; Phe(4-CN) = N#Cc1ccc(C[C@H](N)C(=O)O)cc1; αMePhe(2-F) = C[C@](N)(Cc1ccccc1F)C(=O)O; γGlu = O=C(O)[C@H](CCC(=O)[*:2])N[*:1]; αMe4Pal = C[C@](N)(Cc1ccncc1)C(=O)O; αMeY = C[C@](N)(Cc1ccc(O)cc1)C(=O)O; 4Pal = N[C@@H](Cc1ccncc1)C(=O)O; αMeL = CC(C)C[C@](C)(N)C(=O)O; αMeS = C[C@](N)(CO)C(=O)O; Orn = NCCC[C@H](N)C(=O)O; AEEA = NCCOCCOCC(=O)O; Aib = CC(C)(N)C(=O)O

Key:
Format in all cases: cell-based
hGIPR [1] = target: T1, hGIPR (Homo sapiens, UniProt P48546); assay: Functional cAMP activity in the presence of 1% HSA; conditions: read-out: cAMP Rel EC50, hGIPR
T1 sequence (P48546 22-466): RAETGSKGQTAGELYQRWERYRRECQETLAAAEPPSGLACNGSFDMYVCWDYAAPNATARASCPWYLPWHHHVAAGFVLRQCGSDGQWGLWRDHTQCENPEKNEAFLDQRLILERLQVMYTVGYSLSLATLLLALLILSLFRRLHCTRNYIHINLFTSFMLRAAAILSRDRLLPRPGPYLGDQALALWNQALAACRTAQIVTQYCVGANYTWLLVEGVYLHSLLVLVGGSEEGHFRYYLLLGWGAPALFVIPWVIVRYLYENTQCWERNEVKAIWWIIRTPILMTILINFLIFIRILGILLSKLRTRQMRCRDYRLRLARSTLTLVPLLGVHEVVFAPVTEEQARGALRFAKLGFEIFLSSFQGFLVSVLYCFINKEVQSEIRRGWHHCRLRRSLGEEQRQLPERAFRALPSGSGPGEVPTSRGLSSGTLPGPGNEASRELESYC

hGLP-1R [2] = target: T2, hGLP-1R (Homo sapiens, UniProt P43220); assay: Functional cAMP activity in the presence of 1% HSA; conditions: read-out: cAMP Rel EC50, hGLP-1R
T2 sequence (P43220 24-463): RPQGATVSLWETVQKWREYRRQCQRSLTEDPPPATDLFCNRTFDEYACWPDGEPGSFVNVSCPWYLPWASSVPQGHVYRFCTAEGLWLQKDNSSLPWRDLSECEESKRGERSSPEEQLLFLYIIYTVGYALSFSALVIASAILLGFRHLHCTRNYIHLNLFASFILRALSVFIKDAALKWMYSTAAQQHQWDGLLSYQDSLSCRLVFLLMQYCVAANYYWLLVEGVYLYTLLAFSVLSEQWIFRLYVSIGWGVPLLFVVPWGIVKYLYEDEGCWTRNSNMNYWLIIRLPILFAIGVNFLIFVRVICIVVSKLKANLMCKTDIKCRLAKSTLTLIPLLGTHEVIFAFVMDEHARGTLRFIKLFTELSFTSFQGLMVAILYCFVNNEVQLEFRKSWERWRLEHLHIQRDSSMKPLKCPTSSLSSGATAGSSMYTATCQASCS

human GcgR = human GcgR (Homo sapiens, UniProt P47871); assay: Functional cAMP activity in the presence of 1% HSA; conditions: read-out: cAMP Rel EC50, hGcgR
human GcgR, sequence (P47871 26-477): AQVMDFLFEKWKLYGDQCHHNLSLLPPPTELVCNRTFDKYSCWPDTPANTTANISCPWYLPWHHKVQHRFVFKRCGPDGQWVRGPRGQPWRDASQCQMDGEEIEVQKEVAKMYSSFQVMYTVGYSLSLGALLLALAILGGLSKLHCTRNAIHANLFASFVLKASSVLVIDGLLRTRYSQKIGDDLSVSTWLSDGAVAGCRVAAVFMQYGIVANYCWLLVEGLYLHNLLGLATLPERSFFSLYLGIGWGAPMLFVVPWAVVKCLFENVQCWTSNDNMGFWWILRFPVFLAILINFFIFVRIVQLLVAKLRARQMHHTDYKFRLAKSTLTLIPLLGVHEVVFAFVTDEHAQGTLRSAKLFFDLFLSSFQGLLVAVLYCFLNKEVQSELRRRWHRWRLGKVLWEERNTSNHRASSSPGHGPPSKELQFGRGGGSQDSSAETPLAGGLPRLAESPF

hGIPR [3] = target: T1, hGIPR; assay: Functional cAMP activation in the presence of 0.1% casein (no HSA); conditions: read-out: Relative cAMP EC50, hGIPR;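 as to Relative cAMP EC50, hGIPR: intracellular cAMP rise after 30 min at 37 °C read by HTRF against a standard curve, scaled between buffer alone (0%) and top control ligand concentration (100%), four-parameter fit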;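 as to Relative cAMP EC50, hGLP-1R: intracellular cAMP rise after 30 min at 37 °C read by HTRF, normalized between buffer only (0%) and maximal control ligand (100%), four-parameter variable-slope fit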;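 as to Relative cAMP EC50, hGcgR: intracellular cAMP rise after 30 min at 37 °C, read by HTRF against a cAMP standard curve, scaled from buffer only (0%) to maximal control ligand response (100%)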
hGLP-1R [4] = target: T2, hGLP-1R; assay: as above; conditions: read-out: Relative cAMP EC50, hGLP-1R
hGcgR = hGcgR (Homo sapiens, UniProt P47871); assay: as above; conditions: read-out: Relative cAMP EC50, hGcgR;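 also: intracellular cAMP rise after 30 min at 37 °C, read by HTRF against a cAMP standard curve, scaled from buffer only (0%) to maximal control ligand response (100%)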
hGcgR, sequence (P47871 26-477): as above

[5] = 0.1% casein, no HSA, geometric mean
[6] = in the presence of 0.1% casein (no HSA), geometric mean
[7] = HEK-293 clonal cell line, in the presence of 1% HSA, geometric mean of relative EC50

Compound | EC50 (hGIPR [1]) | EC50 (hGLP-1R [2]) | EC50 (human GcgR) | EC50 (hGIPR [3]) | EC50 (hGLP-1R [4]) | EC50 (hGcgR) | EC50 (hGIPR [3]; [5]) | EC50 (hGLP-1R [4]; [5]) | EC50 (hGcgR; [5]) | EC50 (hGIPR [3]; [6]) | EC50 (hGLP-1R [4]; [6]) | EC50 (hGcgR; [6]) | EC50 (hGIPR [1]; [7]) | EC50 (hGLP-1R [2]; [7]) | EC50 (human GcgR; [7])
CC[C@H](C)[C@H](NC(=O)[C@H](Cc1ccccc1)NC(=O)[C@H](C)NC(=O)C(C)(C)NC(=O)[C@H](CCC(N)=O)NC(=O)[C@H](C)NC(=O)[C@H](CCCCNC(=O)CC[C@H](NC(=O)CC[C@H](NC(=O)CCCCCCCCCCCCCCCCC(=O)O)C(=O)O)C(=O)O)NC(=O)[C@H](CCCCN)NC(=O)[C@H](CC(=O)O)NC(=O)[C@H](CC(C)C)NC(=O)[C@](C)(CC(C)C)NC(=O)[C@@H](NC(=O)[C@H](CO)NC(=O)[C@H](Cc1ccncc1)NC(=O)[C@H](CC(=O)O)NC(=O)[C@H](CO)NC(=O)[C@@H](NC(=O)[C@](C)(Cc1ccccc1F)NC(=O)[C@@H](NC(=O)CNC(=O)[C@H](CCC(N)=O)NC(=O)C(C)(C)NC(=O)[C@@H](N)Cc1ccc(O)cc1)[C@@H](C)O)[C@@H](C)O)[C@@H](C)CC)C(=O)N[C@@H](CCC(=O)O)C(=O)N[C@@H](Cc1ccc(O)cc1)C(=O)N[C@@H](CC(C)C)C(=O)N[C@@H](CO)C(=O)N[C@@H](CCC(=O)O)C(=O)NCC(=O)NCC(=O)N1CCC[C@H]1C(=O)N[C@@H](CO)C(=O)N[C@@H](CO)C(=O)NCC(=O)N[C@@H](C)C(=O)N1CCC[C@H]1C(=O)N1CCC[C@H]1C(=O)N1CCC[C@H]1C(=O)N[C@@H](CO)C(N)=O [Example 446] (H-Y[Aib]QGT[αMePhe(2-F)]TSD[4Pal]SI[αMeL]LDKK([γGlu-γGlu-C18 diacid])AQ[Aib]AFIEYLSEGGPSSGAPPPS-NH2) | 3.01 nM | 24.5 nM | 516 nM | 0.0351 nM | 0.696 nM | 8.34 nM |  |  |  |  |  |  |  |  | 
H-Y[Aib]QGT[αMePhe(2-F)]TSD[4Pal][αMeS]I[αMeL]LD[Orn]QAQ[αMe4Pal]EFI[dE][αMeY]LIEGGPSSGAPPPSGS-NH2 [Example 1232] | 0.00687 nM | 0.694 nM | 8.53 nM |  |  |  | 0.00893 nM | 0.723 nM | 6.69 nM |  |  |  |  |  | 
H-Y[Aib]QGTFTSDFS[Orn][αMeL]LDKK([AEEA-γGlu-C18 diacid])AQ[αMe4Pal]AFIEYLIE[Aib]GPSSGAPPPSGS-NH2 [Example 811] | 25.8 nM | 246 nM | 175 nM |  |  |  |  |  |  | 0.14 nM | 1.48 nM | 0.724 nM |  |  | 
H-Y[Aib]QGT[αMePhe(2-F)]TSD[4Pal]SI[αMeL]LD[Orn]K([AEEA-γGlu-C18 diacid])AQ[αMe4Pal]EFI[dE][αMeY]LAEGGPSSGAPPPSGS-NH2 [Example 642] | 0.791 nM | 67.1 nM | 519 nM | 0.00796 nM | 0.474 nM | 3.49 nM |  |  |  |  |  |  |  |  | 
Y[Aib]QGTFTSD[4Pal]S[Orn][αMeL]LD[Orn]K([γGlu-γGlu-C18 diacid])AQ[αMe4Pal]AFIEYLIAGGPSSGAPPPSGSE-NH2 [Example 1011] | 13.5 nM | 148 nM | 459 nM |  |  |  |  |  |  | 0.21 nM | 2.13 nM | 5.27 nM |  |  | 
H-Y[Aib]QGTFTSD[4Pal]SQ[αMeL]LDKK([γGlu-γGlu-C18 diacid])AQ[αMe4Pal]AFIEYLIE[Aib]GPSSGAPPPSGTE-NH2 [Example 1126] | 13.5 nM | 208 nM | 452 nM |  |  |  |  |  |  | 0.174 nM | 4.56 nM | 3.92 nM |  |  | 
H-Y[Aib]QGT[αMePhe(2-F)]TSD[4Pal][αMeS]I[αMeL]LD[Orn]K([γGlu-γGlu-C18 diacid])AQ[Aib][Orn]FI[dE][αMeY]LQEGGPSSGEPPPEGSEE-NH2 [Example 585] | 3.93 nM | 38.6 nM | 436 nM | 0.0801 nM | 0.601 nM | 6.25 nM |  |  |  |  |  |  |  |  | 
H-Y[Aib]Q[dA]T[αMePhe(2-F)]TSD[4Pal][αMeS]I[αMeL]LD[Orn]K([γGlu-γGlu-C18 diacid])AQ[Aib]EFI[dE][αMeY]LIEGGPSSGAPPPSGSE-NH2 [Example 1224] | 3.78 nM | 28.4 nM | 208 nM |  |  |  | 0.048 nM | 0.379 nM | 2.32 nM |  |  |  |  |  | 
CC[C@H](C)[C@H](NC(=O)[C@H](Cc1ccccc1)NC(=O)[C@H](CCCN)NC(=O)C(C)(C)NC(=O)[C@H](CCC(N)=O)NC(=O)[C@H](C)NC(=O)[C@H](CCCCNC(=O)CC[C@H](NC(=O)CC[C@H](NC(=O)CCCCCCCCCCCCCCCCC(=O)O)C(=O)O)C(=O)O)NC(=O)[C@H](CCCN)NC(=O)[C@H](CC(=O)O)NC(=O)[C@H](CC(C)C)NC(=O)[C@](C)(CC(C)C)NC(=O)[C@@H](NC(=O)[C@H](CO)NC(=O)[C@H](Cc1ccncc1)NC(=O)[C@H](CC(=O)O)NC(=O)[C@H](CO)NC(=O)[C@@H](NC(=O)[C@](C)(Cc1ccccc1F)NC(=O)[C@@H](NC(=O)CNC(=O)[C@H](CCC(N)=O)NC(=O)C(C)(C)NC(=O)[C@@H](N)Cc1ccc(O)cc1)[C@@H](C)O)[C@@H](C)O)[C@@H](C)CC)C(=O)N[C@H](CCC(=O)O)C(=O)N[C@@](C)(Cc1ccc(O)cc1)C(=O)N[C@@H](CC(C)C)C(=O)N[C@@H](CC(C)C)C(=O)N[C@@H](CCC(=O)O)C(=O)NCC(=O)NCC(=O)N1CCC[C@H]1C(=O)N[C@@H](CO)C(=O)N[C@@H](CO)C(=O)NCC(=O)N[C@@H](CCC(=O)O)C(=O)N1CCC[C@H]1C(=O)N1CCC[C@H]1C(=O)N1CCC[C@H]1C(=O)N[C@@H](CCC(=O)O)C(N)=O [Example 372] (H-Y[Aib]QGT[αMePhe(2-F)]TSD[4Pal]SI[αMeL]LD[Orn]K([γGlu-γGlu-C18 diacid])AQ[Aib][Orn]FI[dE][αMeY]LLEGGPSSGEPPPE-NH2) | 2.63 nM | 53.1 nM | 468 nM |  |  |  |  |  |  | 0.0161 nM | 0.333 nM | 7.54 nM |  |  | 
H-Y[Aib]QGTFTSD[4Pal]S[Orn][αMeL]LD[Orn]K([γGlu-γGlu-C18 diacid])AQ[αMe4Pal][Orn]FIE[αMeY]LLAGGPSSGAPPPSGSEE-NH2 [Example 997] |  |  |  |  |  |  |  |  |  | 0.373 nM | 20.7 nM | 5.01 nM | 27.8 nM | 1880 nM | 527 nM
H-Y[Aib]QGTFTSD[4Pal]SQ[αMeL]LDKK([Glu-γGlu-C18 diacid])AQ[αMe4Pal]AFIEYLIAGGPSSGAPPPSGEEE-NH2 [Example 1089] | 34.6 nM | 449 nM | 2580 nM |  |  |  |  |  |  | 0.213 nM | 2.96 nM | 14 nM |  |  | 
H-Y[Aib]QGT[αMePhe(2-F)]TSD[4Pal]SILLDKK([AEEA-γGlu-C18 diacid])AQ[Aib]AFIE[αMeY]LEEGGPSSGAPPPSGTGE-NH2 [Example 669] | 1.41 nM | 27.3 nM | 173 nM | 0.0145 nM | 0.27 nM | 1.76 nM |  |  |  |  |  |  |  |  | 
H-Y[Aib]QGTFTSDYSI[αMeL]LD[Orn]QAAK([AEEA-AEEA-γGlu-C20 diacid])QFVEWLLA[Aib]GPSSGEPPPSEG-NH2 [Example 328] | 91.1 nM | 462 nM | 2040 nM |  |  |  |  |  |  | 0.544 nM | 1.3 nM | 10.3 nM |  |  | 
H-Y[Aib]QGTFTSD[4Pal]SQ[αMeL]LDKK([AEEA-γGlu-C18 diacid])AQ[αMe4Pal]AFIEYLIEGGPSSGAPPPSGS-NH2 [Example 826] | 81.6 nM | 202 nM | 441 nM |  |  |  |  |  |  | 0.581 nM | 2.75 nM | 5.59 nM |  |  | 
H-Y[Aib]QGT[αMePhe(2-F)]TSD[Phe(4-CN)]SILLDKQAQK([AEEA-γGlu-γGlu-C20 diacid])AFIEYLLEGGPSSGEPPPSEG-NH2 [Example 352] | 34.1 nM | 407 nM | 4020 nM |  |  |  |  |  |  | 0.245 nM | 0.967 nM | 16.4 nM |  |  | 
